# Data reported in publication PMC5847526, “Inhibition of neuronal FLT3 receptor tyrosine kinase alleviates peripheral neuropathic pain in mice” (Nature Communications, 2018).
# Tests used:
# Experiment in all cases: biochemical
# Parameters in all cases: ExpresS Diversity kinase profile (Eurofins Cerep P10), per cent inhibition
# Conditions in all cases: read-out: Inhibition of reference binding (Table 4)
# PDK1 = molecular target: T1, PDK1 (Homo sapiens, UniProt O15530)
# T1 construct: gene PDPK1
# EGFR kinase = EGFR kinase (Homo sapiens, UniProt P00533)
# p38α kinase = molecular target: T2, p38α kinase (Homo sapiens, UniProt Q16539)
# T2 construct: gene MAPK14
# Pim2 kinase = Pim2 kinase (Homo sapiens, UniProt Q9P1W9)
# Abl kinase = molecular target: T3, Abl kinase (Homo sapiens, UniProt P00519)
# T3 construct: gene ABL1
# CHK1 = molecular target: T4, CHK1 (Homo sapiens, UniProt O14757)
# T4 construct: gene CHEK1
# PAK2 = PAK2 (Homo sapiens, UniProt Q13177)
# ROCK1 = ROCK1 (Homo sapiens, UniProt Q13464)
# TRKA = molecular target: T5, TRKA (Homo sapiens, UniProt P04629)
# T5 construct: gene NTRK1
# GSK3β = molecular target: T6, GSK3β (Homo sapiens, UniProt P49841)
# T6 construct: gene GSK3B
# MAPKAPK2 = MAPKAPK2 (Homo sapiens, UniProt P49137)
# c-Met kinase = c-Met kinase (Homo sapiens, UniProt P08581)
# CaMK2α = molecular target: T7, CaMK2α (Homo sapiens, UniProt Q9UQM7)
# T7 construct: gene CAMK2A
# CHK2 = molecular target: T8, CHK2 (Homo sapiens, UniProt O96017)
# T8 construct: gene CHEK2
# NEK2 = NEK2 (Homo sapiens, UniProt P51955)
# c-KIT = c-KIT (Homo sapiens, UniProt P10721)
# RAF-1 kinase = molecular target: T9, RAF-1 kinase (Homo sapiens, UniProt P04049)
# T9 construct: gene RAF1
# CDC2/CDK1 = CDC2/CDK1 (Homo sapiens, UniProt P06493)
# EphA3 kinase = EphA3 kinase (Homo sapiens, UniProt P29320)
# PKCbeta 2 = molecular target: T10, PKCbeta 2 (Homo sapiens, UniProt P05771)
# T10 construct: gene PRKCB; isoform beta 2
# JAK3 = JAK3 (Homo sapiens, UniProt P52333)
# Fms/CSFR kinase = molecular target: T11, Fms/CSFR kinase (Homo sapiens, UniProt P07333)
# T11 construct: gene CSF1R
# FGFR1 kinase = FGFR1 kinase (Homo sapiens, UniProt P11362)
# AurA/Aur2 kinase = molecular target: T12, AurA/Aur2 kinase (Homo sapiens, UniProt O14965)
# T12 construct: gene AURKA
# Lck kinase = Lck kinase (Homo sapiens, UniProt P06239)
# IKKα = molecular target: T13, IKKα (Homo sapiens, UniProt O15111)
# T13 construct: gene CHUK
# PKA = molecular target: T14, PKA (Homo sapiens, UniProt P17612)
# T14 construct: gene PRKACA
# SIK = molecular target: T15, SIK (Homo sapiens, UniProt P57059)
# T15 construct: gene SIK1
# T6 sequence (P49841 whole entry): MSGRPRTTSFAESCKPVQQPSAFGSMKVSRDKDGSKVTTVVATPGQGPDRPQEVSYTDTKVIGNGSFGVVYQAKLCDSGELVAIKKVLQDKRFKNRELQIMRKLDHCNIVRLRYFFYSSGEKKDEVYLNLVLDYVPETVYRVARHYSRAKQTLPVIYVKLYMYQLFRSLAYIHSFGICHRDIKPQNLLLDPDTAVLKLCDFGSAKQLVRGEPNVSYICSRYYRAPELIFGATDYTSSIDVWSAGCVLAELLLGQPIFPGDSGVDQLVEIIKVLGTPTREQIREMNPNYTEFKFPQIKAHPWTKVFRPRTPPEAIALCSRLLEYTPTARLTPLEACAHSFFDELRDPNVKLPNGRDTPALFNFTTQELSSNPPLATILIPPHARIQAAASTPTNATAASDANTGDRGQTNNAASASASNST
# T13 sequence (O15111 whole entry): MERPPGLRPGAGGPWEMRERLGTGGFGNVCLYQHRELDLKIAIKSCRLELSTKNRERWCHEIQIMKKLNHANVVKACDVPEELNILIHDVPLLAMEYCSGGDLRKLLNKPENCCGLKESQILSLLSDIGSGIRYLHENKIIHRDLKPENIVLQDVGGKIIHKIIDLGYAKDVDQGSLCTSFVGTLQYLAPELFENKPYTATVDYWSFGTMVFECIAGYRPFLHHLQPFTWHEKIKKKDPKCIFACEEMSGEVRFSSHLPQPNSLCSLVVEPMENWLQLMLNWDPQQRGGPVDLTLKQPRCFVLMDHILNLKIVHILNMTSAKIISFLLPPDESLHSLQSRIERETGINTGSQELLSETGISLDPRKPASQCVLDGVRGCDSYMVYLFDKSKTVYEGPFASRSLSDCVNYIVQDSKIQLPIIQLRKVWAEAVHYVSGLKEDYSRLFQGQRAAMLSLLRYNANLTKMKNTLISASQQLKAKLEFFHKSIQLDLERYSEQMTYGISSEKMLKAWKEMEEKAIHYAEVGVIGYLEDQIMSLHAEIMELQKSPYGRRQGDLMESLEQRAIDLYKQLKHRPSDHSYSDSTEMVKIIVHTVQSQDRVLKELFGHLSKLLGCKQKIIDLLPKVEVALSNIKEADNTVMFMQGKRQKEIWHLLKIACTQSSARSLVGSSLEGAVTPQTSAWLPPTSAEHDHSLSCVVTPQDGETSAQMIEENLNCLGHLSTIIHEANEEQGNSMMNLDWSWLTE
# T2 sequence (Q16539 whole entry): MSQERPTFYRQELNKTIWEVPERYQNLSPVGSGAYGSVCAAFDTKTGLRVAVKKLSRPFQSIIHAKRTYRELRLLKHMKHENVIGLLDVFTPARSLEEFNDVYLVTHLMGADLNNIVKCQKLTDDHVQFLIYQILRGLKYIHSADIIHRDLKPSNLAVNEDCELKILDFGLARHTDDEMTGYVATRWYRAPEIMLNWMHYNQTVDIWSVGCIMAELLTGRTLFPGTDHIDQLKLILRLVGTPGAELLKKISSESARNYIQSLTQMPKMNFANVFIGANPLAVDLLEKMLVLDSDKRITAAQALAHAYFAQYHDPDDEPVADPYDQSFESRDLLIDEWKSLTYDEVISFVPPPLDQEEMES
# Chain of EGFR kinase (P00533 whole entry): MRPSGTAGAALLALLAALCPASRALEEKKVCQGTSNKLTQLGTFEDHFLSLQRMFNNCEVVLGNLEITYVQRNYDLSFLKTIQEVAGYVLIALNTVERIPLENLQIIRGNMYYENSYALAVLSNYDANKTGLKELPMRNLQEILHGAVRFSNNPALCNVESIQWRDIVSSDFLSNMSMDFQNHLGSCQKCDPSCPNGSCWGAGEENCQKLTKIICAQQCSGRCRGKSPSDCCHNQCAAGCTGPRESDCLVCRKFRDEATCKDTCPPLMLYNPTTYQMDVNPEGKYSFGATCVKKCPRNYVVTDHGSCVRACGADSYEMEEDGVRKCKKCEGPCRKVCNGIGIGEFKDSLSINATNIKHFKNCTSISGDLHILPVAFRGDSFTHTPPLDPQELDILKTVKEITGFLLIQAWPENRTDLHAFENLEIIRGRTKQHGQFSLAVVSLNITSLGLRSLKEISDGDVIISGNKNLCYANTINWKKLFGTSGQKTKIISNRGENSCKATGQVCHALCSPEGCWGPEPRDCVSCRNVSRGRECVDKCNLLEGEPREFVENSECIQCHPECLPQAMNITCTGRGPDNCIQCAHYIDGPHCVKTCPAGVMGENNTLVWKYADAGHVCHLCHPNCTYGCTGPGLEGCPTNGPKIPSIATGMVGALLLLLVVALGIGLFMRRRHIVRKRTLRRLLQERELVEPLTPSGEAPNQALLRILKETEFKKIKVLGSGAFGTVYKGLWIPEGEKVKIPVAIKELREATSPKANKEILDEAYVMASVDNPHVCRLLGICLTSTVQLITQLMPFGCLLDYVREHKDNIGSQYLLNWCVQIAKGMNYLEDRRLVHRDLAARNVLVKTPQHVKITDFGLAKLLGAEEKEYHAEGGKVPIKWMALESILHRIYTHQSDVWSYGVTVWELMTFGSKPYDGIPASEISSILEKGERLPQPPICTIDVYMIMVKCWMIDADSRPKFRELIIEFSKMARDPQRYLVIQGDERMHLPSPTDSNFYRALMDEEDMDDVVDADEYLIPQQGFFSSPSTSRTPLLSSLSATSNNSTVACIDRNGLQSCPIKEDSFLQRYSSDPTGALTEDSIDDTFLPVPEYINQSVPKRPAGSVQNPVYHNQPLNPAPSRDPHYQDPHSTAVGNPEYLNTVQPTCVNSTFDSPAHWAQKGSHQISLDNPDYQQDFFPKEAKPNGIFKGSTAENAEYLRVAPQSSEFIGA
# Chain of c-Met kinase (P08581 whole entry): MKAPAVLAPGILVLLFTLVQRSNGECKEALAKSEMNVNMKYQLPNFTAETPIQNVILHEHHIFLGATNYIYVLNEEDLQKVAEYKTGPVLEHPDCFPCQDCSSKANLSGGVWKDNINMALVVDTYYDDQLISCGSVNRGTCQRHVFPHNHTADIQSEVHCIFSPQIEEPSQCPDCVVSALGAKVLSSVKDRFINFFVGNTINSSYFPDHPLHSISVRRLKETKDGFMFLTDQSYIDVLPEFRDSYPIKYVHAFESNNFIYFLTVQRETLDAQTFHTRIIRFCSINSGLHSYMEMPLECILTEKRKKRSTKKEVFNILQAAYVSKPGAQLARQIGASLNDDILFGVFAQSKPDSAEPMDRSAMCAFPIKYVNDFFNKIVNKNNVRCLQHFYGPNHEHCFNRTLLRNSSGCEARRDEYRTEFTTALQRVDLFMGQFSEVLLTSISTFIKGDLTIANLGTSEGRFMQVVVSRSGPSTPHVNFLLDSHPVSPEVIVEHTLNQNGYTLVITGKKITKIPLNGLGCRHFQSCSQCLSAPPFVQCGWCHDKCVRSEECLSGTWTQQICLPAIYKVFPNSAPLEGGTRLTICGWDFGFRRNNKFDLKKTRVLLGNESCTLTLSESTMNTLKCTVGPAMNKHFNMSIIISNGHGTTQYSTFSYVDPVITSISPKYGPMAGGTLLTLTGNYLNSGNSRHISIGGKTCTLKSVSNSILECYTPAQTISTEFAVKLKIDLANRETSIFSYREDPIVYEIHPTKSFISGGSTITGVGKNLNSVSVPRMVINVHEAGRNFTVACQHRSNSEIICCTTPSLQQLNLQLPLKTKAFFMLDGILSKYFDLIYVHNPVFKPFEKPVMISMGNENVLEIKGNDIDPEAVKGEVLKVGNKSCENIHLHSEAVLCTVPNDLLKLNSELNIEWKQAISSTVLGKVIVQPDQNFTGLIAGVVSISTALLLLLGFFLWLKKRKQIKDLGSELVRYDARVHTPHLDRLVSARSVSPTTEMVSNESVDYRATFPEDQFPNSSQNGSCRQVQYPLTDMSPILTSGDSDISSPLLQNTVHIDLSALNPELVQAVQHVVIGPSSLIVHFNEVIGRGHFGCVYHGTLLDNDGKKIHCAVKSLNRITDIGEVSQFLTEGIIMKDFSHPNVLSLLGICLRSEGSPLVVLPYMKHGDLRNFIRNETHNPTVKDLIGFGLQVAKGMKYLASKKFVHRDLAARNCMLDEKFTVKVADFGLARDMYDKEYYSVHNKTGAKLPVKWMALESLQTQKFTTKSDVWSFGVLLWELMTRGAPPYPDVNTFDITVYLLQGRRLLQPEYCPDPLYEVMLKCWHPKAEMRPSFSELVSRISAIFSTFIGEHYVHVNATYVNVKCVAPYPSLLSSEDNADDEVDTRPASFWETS
# Chain of PAK2 (Q13177 whole entry): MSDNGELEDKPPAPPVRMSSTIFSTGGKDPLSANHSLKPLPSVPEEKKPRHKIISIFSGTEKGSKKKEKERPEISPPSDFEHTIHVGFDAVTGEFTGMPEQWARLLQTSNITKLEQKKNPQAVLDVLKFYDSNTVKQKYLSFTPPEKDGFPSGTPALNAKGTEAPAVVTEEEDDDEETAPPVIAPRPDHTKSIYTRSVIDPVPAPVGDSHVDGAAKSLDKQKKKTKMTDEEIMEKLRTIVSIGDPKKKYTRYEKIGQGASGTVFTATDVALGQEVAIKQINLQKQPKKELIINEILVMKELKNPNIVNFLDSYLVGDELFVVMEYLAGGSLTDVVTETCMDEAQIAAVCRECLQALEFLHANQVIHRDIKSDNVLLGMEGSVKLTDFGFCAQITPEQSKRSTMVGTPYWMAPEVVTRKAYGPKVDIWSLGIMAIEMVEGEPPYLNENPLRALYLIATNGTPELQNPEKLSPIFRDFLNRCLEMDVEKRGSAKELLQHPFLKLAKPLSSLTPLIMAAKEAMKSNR
# Chain of MAPKAPK2 (P49137 whole entry): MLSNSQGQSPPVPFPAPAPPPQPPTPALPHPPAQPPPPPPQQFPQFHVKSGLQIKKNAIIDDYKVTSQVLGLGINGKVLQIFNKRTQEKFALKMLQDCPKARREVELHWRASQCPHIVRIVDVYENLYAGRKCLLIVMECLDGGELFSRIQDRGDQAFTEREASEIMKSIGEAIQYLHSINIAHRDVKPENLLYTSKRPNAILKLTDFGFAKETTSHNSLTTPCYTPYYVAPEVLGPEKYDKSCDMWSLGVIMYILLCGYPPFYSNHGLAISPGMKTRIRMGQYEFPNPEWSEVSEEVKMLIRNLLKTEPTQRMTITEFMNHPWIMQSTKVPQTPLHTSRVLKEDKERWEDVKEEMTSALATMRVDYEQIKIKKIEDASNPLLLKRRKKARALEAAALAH
smiles,measurement,setting,value
"O=C(Nc1cc(Cl)ccc1O)c1cccc(S(=O)(=O)N2CCCCC2)c1 [compound 66, BDT001]",inhibition at 10 µM,PDK1,3%
same,inhibition at 10 µM,EGFR kinase,4%
same,inhibition at 10 µM,p38α kinase,23%
same,inhibition at 10 µM,Pim2 kinase,19%
same,inhibition at 10 µM,Abl kinase,16%
same,inhibition at 10 µM,CHK1,-10%
same,inhibition at 10 µM,PAK2,-8%
same,inhibition at 10 µM,ROCK1,2%
same,inhibition at 10 µM,TRKA,0%
same,inhibition at 10 µM,GSK3β,0%
same,inhibition at 10 µM,MAPKAPK2,6%
same,inhibition at 10 µM,c-Met kinase,0%
same,inhibition at 10 µM,CaMK2α,6%
same,inhibition at 10 µM,CHK2,6%
same,inhibition at 10 µM,NEK2,-23%
same,inhibition at 10 µM,c-KIT,-1%
same,inhibition at 10 µM,RAF-1 kinase,11%
same,inhibition at 10 µM,CDC2/CDK1,26%
same,inhibition at 10 µM,EphA3 kinase,0%
same,inhibition at 10 µM,PKCbeta 2,1%
same,inhibition at 10 µM,JAK3,-3%
same,inhibition at 10 µM,Fms/CSFR kinase,1%
same,inhibition at 10 µM,FGFR1 kinase,-7%
same,inhibition at 10 µM,AurA/Aur2 kinase,-5%
same,inhibition at 10 µM,Lck kinase,-14%
same,inhibition at 10 µM,IKKα,20%
same,inhibition at 10 µM,PKA,7%
same,inhibition at 10 µM,SIK,-6%
